# Data reported in patent publication US10118935B2, “Melampomagnolide B dimers” (priority 2014, dated 2018).
# Columns and labels:
# SK-MEL-5 = test: NCI 60 cell line five dose, Melanoma; settings: SK-MEL-5
# HS 578T = test: NCI 60 cell line five dose, Breast Cancer; settings: HS 578T
# LOX IMVI = test: NCI 60 cell line five dose, Melanoma
# SF-539 = test: NCI 60 cell line five dose, CNS Cancer
# NCI-H23 = test: NCI 60 cell line five dose, Non-Small Cell Lung Cancer
# HT29 = test: NCI 60 cell line five dose, Colon Cancer
# OVCAR-8 = test: NCI 60 cell line five dose, Ovarian Cancer
# DU-145 = test: NCI 60 cell line five dose, Prostate Cancer
# NCI-H522 = test: NCI 60 cell line five dose, Non-Small Cell Lung Cancer
# T-47D = test: NCI 60 cell line five dose, Breast Cancer
# MOLT-4 = test: NCI 60 cell line five dose, Leukemia
# NCI-H226 = test: NCI 60 cell line five dose, Non-Small Cell Lung Cancer
# K-562 = test: NCI 60 cell line five dose, Leukemia
# TK-10 = test: NCI 60 cell line five dose, Renal Cancer
# SK-MEL-2 = test: NCI 60 cell line five dose, Melanoma
# A498 = test: NCI 60 cell line five dose, Renal Cancer
# COLO 205 = test: NCI 60 cell line five dose, Colon Cancer
# NCI-H322M = test: NCI 60 cell line five dose, Non-Small Cell Lung Cancer
# SF-268 = test: NCI 60 cell line five dose, CNS Cancer
# MDA-MB-231/ATCC = test: NCI 60 cell line five dose, Breast Cancer
# OVCAR-4 = test: NCI 60 cell line five dose, Ovarian Cancer
# RPMI-8226 = test: NCI 60 cell line five dose, Leukemia
# SK-MEL-28 = test: NCI 60 cell line five dose, Melanoma; settings: SK-MEL-28
# HCC-2998 = test: NCI 60 cell line five dose, Colon Cancer
smiles,measurement,setting,value
"C=C1C(=O)O[C@H]2[C@H]1CC/C(COC(=O)CCC(=O)NCCCCCCCCCNC(=O)CCC(=O)OC/C1=C/CC[C@@]3(C)O[C@H]3[C@H]3OC(=O)C(=C)[C@@H]3CC1)=C\CC[C@@]1(C)O[C@@H]21 [JVM 2-92, bis(((1aR,7aS,10aS,10bS,E)-1a-Methyl-8-methylene-9-oxo-1a,2,3,6,7,7a,8,9,10a,10b-decahydrooxireno[2′,3′:9,10]cyclodeca[1,2-b]furan-5-yl)methyl)4,4′-(nonane-1,9-diylbis(azanediyl))bis (4-oxobutanoate)]",GI50,SK-MEL-5,1.88 µM
same,TGI,SK-MEL-5,4.19 µM
same,GI50,HS 578T,2.99 µM
same,TGI,HS 578T,24.9 µM
same,GI50,LOX IMVI,0.37 µM
same,TGI,LOX IMVI,1.36 µM
same,GI50,SF-539,1.85 µM
same,TGI,SF-539,4.29 µM
same,GI50,NCI-H23,2.23 µM
same,TGI,NCI-H23,5.13 µM
same,GI50,HT29,1.33 µM
same,TGI,HT29,2.75 µM
same,GI50,OVCAR-8,3.24 µM
same,TGI,OVCAR-8,16.5 µM
same,GI50,DU-145,1.75 µM
same,TGI,DU-145,3.18 µM
same,GI50,NCI-H522,0.42 µM
same,TGI,NCI-H522,1.64 µM
same,GI50,T-47D,1.49 µM
same,TGI,T-47D,4.48 µM
same,GI50,MOLT-4,0.64 µM
same,TGI,MOLT-4,4.20 µM
same,GI50,NCI-H226,1.9 µM
same,TGI,NCI-H226,4.05 µM
same,GI50,K-562,0.45 µM
same,TGI,K-562,3.21 µM
same,GI50,TK-10,1.78 µM
same,TGI,TK-10,3.28 µM
same,GI50,SK-MEL-2,2.12 µM
same,TGI,SK-MEL-2,4.15 µM
same,GI50,A498,2.72 µM
same,TGI,A498,8.30 µM
same,GI50,COLO 205,1.22 µM
same,TGI,COLO 205,3.16 µM
same,GI50,NCI-H322M,16.3 µM
same,TGI,NCI-H322M,31.6 µM
same,GI50,SF-268,2.92 µM
same,TGI,SF-268,10.1 µM
same,GI50,MDA-MB-231/ATCC,1.58 µM
same,TGI,MDA-MB-231/ATCC,4.05 µM
same,GI50,OVCAR-4,1.48 µM
same,TGI,OVCAR-4,3.46 µM
same,GI50,RPMI-8226,0.5 µM
same,TGI,RPMI-8226,3.33 µM
same,GI50,SK-MEL-28,1.47 µM
same,TGI,SK-MEL-28,3.03 µM
same,GI50,HCC-2998,2.25 µM
same,TGI,HCC-2998,4.70 µM
"C=C1C(=O)O[C@H]2[C@H]1CC/C(COC(=O)CCC(=O)NCCCCCCCCNC(=O)CCC(=O)OC/C1=C/CC[C@@]3(C)O[C@H]3[C@H]3OC(=O)C(=C)[C@@H]3CC1)=C\CC[C@@]1(C)O[C@@H]21 [JVM 2-87, bis(((1aR,7aS,10aS,10bS,E)-1a-Methyl-8-methylene-9-oxo-1a,2,3,6,7,7a,8,9,10a,1b-decahydrooxireno[2′,3′:9,10]cyclodeca[1,2-b]furan-5-yl)methyl)4,4′-(octane-1,8-diylbis(azanediyl))bis(4-oxobutanoate)]",GI50,SK-MEL-5,3.13 µM
same,TGI,SK-MEL-5,11.1 µM
same,GI50,HS 578T,3.88 µM
same,TGI,HS 578T,29.5 µM
same,GI50,LOX IMVI,1.37 µM
same,TGI,LOX IMVI,2.76 µM
same,GI50,SF-539,2.43 µM
same,TGI,SF-539,5.76 µM
same,GI50,NCI-H23,2.99 µM
same,TGI,NCI-H23,8.25 µM
same,GI50,HT29,1.64 µM
same,TGI,HT29,3.12 µM
same,GI50,OVCAR-8,2.9 µM
same,TGI,OVCAR-8,13.3 µM
same,GI50,DU-145,1.92 µM
same,TGI,DU-145,3.61 µM
same,GI50,NCI-H522,0.48 µM
same,TGI,NCI-H522,1.80 µM
same,GI50,T-47D,1.51 µM
same,TGI,T-47D,3.86 µM
same,GI50,MOLT-4,2.11 µM
same,TGI,MOLT-4,6.41 µM
same,GI50,NCI-H226,2.06 µM
same,TGI,NCI-H226,4.95 µM
same,GI50,K-562,0.97 µM
same,TGI,K-562,12.9 µM
same,GI50,TK-10,20.8 µM
same,TGI,TK-10,3.94 µM
same,GI50,SK-MEL-2,2.25 µM
same,TGI,SK-MEL-2,4.59 µM
same,GI50,A498,6.72 µM
same,TGI,A498,20.8 µM
same,GI50,COLO 205,1.35 µM
same,TGI,COLO 205,3.14 µM
same,GI50,NCI-H322M,16.3 µM
same,TGI,NCI-H322M,31.4 µM
same,GI50,SF-268,3.34 µM
same,TGI,SF-268,11.6 µM
same,GI50,MDA-MB-231/ATCC,1.97 µM
same,TGI,MDA-MB-231/ATCC,4.41 µM
same,GI50,OVCAR-4,1.64 µM
same,TGI,OVCAR-4,3.92 µM
same,GI50,RPMI-8226,1.67 µM
same,TGI,RPMI-8226,5.70 µM
same,GI50,SK-MEL-28,1.65 µM
same,TGI,SK-MEL-28,3.23 µM
same,GI50,HCC-2998,4.12 µM
same,TGI,HCC-2998,16.7 µM
